Experimental data from patent US20230265151A1, “GIP/GLP1 CO-AGONIST COMPOUNDS” (priority 2020, published 2023).
Like-named read-outs stand apart in the source and are kept apart here.

Tests used:
[1] = biological target: T1, human GIP receptor (hGIPR) (Homo sapiens, UniProt P48546); assay: [125I]-GIP binding, SPA with membranes of CHO cells expressing hGIPR; conditions: human GIPR; geometric mean (SEM, n); read-out: Binding Affinity Ki, nM (SEM, n) hGIPR
T1 construct: expressed in transfected cells; crude membranes
T1 sequence (P48546 22-466): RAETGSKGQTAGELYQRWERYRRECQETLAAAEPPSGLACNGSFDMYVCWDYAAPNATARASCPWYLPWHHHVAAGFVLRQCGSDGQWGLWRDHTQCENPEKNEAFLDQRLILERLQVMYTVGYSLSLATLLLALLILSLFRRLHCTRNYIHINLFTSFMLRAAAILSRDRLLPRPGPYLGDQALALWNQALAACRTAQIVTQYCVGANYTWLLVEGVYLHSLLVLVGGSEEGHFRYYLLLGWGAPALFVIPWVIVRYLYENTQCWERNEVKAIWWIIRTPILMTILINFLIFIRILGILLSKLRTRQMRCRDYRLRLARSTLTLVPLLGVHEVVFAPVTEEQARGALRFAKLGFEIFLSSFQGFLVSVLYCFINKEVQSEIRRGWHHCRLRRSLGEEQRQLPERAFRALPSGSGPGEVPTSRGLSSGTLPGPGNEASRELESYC

hGLP-1R = hGLP-1R (Homo sapiens, UniProt P43220); assay: Functional cAMP formation (HTRF) in HEK-293 clonal cells expressing hGLP-1R, 0.1% bovine casein, without or with 1.0% human serum albumin; type: cell-based; parameters: expressed in transfected cells; conditions: 37° C.; for EC50: cAMP, 0.1% bovine casein (no human serum albumin), geometric mean, read-out: hGLP-1R EC50, nM (SEM, n); for Emax: HEK293, cAMP, percent of maximal response to GLP-1(7-36)NH2, read-out: hGLP-1R Emax, % ± SEM
Sequence of hGLP-1R (P43220 24-463): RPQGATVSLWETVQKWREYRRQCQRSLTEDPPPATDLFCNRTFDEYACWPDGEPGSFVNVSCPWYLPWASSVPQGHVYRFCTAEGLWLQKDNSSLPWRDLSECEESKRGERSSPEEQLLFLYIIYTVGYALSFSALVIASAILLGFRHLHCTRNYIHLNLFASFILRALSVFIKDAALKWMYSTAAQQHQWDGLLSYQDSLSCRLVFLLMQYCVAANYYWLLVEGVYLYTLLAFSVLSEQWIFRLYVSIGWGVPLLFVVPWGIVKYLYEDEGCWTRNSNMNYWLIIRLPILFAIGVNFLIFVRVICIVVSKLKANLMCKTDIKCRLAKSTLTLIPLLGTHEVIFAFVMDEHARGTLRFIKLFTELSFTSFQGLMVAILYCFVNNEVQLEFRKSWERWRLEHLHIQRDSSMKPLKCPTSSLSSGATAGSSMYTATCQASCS
How it was run: (§1)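 Readings of the HTRF 665/620 nm ratio, which falls as cAMP rises, were converted to nM cAMP using a standard curve after 30 min peptide exposure at 37° C.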

[2] = biological target: T2, human GLP-1 receptor (hGLP-1R) (Homo sapiens, UniProt P43220); assay: [125I]-GLP-1 binding, SPA with membranes of HEK293 cells expressing hGLP-1R; conditions: human GLP-1R; geometric mean (SEM, n); read-out: Binding Affinity Ki, nM (SEM, n) hGLP-1R
T2 construct: expressed in transfected cells; crude membranes
T2 sequence (P43220 24-463): as above

hGCGR = biological target: T3, hGCGR (Homo sapiens, UniProt P47871); assay: Functional cAMP formation (HTRF) in HEK-293 clonal cells expressing hGCGR, 0.1% bovine casein, without or with 1.0% human serum albumin; type: cell-based; conditions: cAMP, 37° C., read-out: hGCGR EC50, nM (SEM, n)
T3 construct: expressed in transfected cells
T3 sequence (P47871 26-477): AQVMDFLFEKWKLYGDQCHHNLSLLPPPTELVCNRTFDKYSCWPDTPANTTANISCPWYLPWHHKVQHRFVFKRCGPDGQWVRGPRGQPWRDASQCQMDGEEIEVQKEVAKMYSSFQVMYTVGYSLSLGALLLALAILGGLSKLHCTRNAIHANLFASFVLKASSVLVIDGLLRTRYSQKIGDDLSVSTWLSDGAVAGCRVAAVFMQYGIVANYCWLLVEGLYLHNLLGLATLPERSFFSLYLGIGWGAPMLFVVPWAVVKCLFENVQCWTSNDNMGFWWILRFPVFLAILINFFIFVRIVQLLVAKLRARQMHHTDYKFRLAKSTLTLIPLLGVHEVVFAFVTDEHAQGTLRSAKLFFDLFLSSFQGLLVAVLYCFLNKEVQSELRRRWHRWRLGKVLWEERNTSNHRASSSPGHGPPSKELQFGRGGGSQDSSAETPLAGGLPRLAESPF
How it was run: as §1

hGIPR = biological target: T4, hGIPR (Homo sapiens, UniProt P48546); assay: Functional cAMP formation (HTRF) in HEK-293 clonal cells expressing hGIPR, 0.1% bovine casein, without or with 1.0% human serum albumin; type: cell-based; conditions: 37° C.; for Emax: HEK293, cAMP, percent of maximal response to GIP(1-42)NH2, read-out: hGIPR Emax, % ± SEM; for EC50: cAMP, 0.1% bovine casein (no human serum albumin), geometric mean, read-out: hGIPR EC50, nM (SEM, n)
T4 construct: expressed in transfected cells
T4 sequence (P48546 22-466): T1 sequence (P48546 22-466)
How it was run: as §1

[3] = 0.1% bovine casein (no human serum albumin), geometric mean
[4] = 0.1% bovine casein and 1.0% human serum albumin, geometric mean (SEM, n)
[5] = 0.1% bovine casein and 1.0% human serum albumin
[6] = 0.1% bovine casein, arithmetic mean

| Compound | Ki [1] | EC50 (hGLP-1R) | Ki [2] | EC50 (hGCGR; [3]) | EC50 (hGCGR; [4]) | Emax (hGIPR; [5]) | Emax (hGIPR; [6]) | EC50 (hGIPR) | Emax (hGLP-1R; [5]) | Emax (hGLP-1R; [6]) |
| --- | --- | --- | --- | --- | --- | --- | --- | --- | --- | --- |
| CC[C@H](C)[C@H](NC(=O)[C@H](CC(C)C)NC(=O)[C@](C)(Cc1ccc(O)cc1)NC(=O)[C@H](CCCCNC(=O)COCCOCCNC(=O)CC[C@H](NC(=O)CC[C@H](NC(=O)CC[C@H](NC(=O)CCCCCCCCCCCCC(=O)O)C(=O)O)C(=O)O)C(=O)O)NC(=O)[C@@H](NC(=O)[C@H](Cc1ccccc1)NC(=O)[C@H](CCCN)NC(=O)C(C)(C)NC(=O)[C@H](CCC(N)=O)NC(=O)[C@H](C)NC(=O)[C@H](CCC(N)=O)NC(=O)[C@H](CCCN)NC(=O)[C@H](CC(=O)O)NC(=O)[C@H](CC(C)C)NC(=O)[C@](C)(CC(C)C)NC(=O)[C@@H](NC(=O)C(C)(C)NC(=O)[C@H](Cc1ccncc1)NC(=O)[C@H](CC(=O)O)NC(=O)[C@H](CO)NC(=O)[C@@H](NC(=O)[C@](C)(Cc1ccccc1F)NC(=O)[C@@H](NC(=O)CNC(=O)[C@H](CCC(=O)O)NC(=O)C(C)(C)NC(=O)[C@@H](N)Cc1ccc(O)cc1)[C@@H](C)O)[C@@H](C)O)[C@@H](C)CC)[C@@H](C)CC)C(=O)N[C@@H](CCCCNC(=O)COCCOCCNC(=O)CC[C@H](NC(=O)CC[C@H](NC(=O)CC[C@H](NC(=O)CCCCCCCCCCCCC(=O)O)C(=O)O)C(=O)O)C(=O)O)C(=O)NCC(=O)NCC(=O)N1CCC[C@H]1C(=O)N[C@@H](CO)C(=O)N[C@@H](CO)C(=O)NCC(=O)N[C@@H](C)C(=O)N1CCC[C@H]1C(=O)N1CCC[C@H]1C(=O)N1CCC[C@H]1C(=O)N[C@@H](CO)C(N)=O [Example 486] | 0.046 nM | 0.166 nM | 0.299 nM | > 9950 nM | > 9950 nM | 88.2% | 94.1% | 0.0143 nM | – | – |
| CCCCCCCCCCCC(=O)N[C@@H](CCC(=O)NCCOCCOCC(=O)NCCOCCOCC(=O)NCCOCCOCC(=O)NCCCC[C@H](NC(=O)[C@H](CCCN)NC(=O)[C@H](CC(=O)O)NC(=O)[C@H](CC(C)C)NC(=O)[C@](C)(CC(C)C)NC(=O)[C@@H](NC(=O)C(C)(C)NC(=O)[C@H](Cc1ccncc1)NC(=O)[C@H](CC(=O)O)NC(=O)[C@H](CO)NC(=O)[C@@H](NC(=O)[C@](C)(Cc1ccccc1F)NC(=O)[C@@H](NC(=O)CNC(=O)[C@H](CCC(=O)O)NC(=O)C(C)(C)NC(=O)[C@@H](N)Cc1ccc(O)cc1)[C@@H](C)O)[C@@H](C)O)[C@@H](C)CC)C(=O)N[C@@H](C)C(=O)N[C@@H](CCC(N)=O)C(=O)NC(C)(C)C(=O)N[C@@H](CCCCNC(=O)COCCOCCNC(=O)COCCOCCNC(=O)COCCOCCNC(=O)CC[C@H](NC(=O)CCCCCCCCCCC)C(=O)O)C(=O)N[C@@H](Cc1ccccc1)C(=O)N[C@H](C(=O)N[C@H](CCC(=O)O)C(=O)N[C@@](C)(Cc1ccc(O)cc1)C(=O)N[C@@H](CC(C)C)C(=O)N[C@H](C(=O)N[C@@H](CCC(=O)O)C(=O)NCC(=O)NCC(=O)N1CCC[C@H]1C(=O)N[C@@H](CO)C(=O)N[C@@H](CO)C(=O)NCC(=O)N[C@@H](C)C(=O)N1CCC[C@H]1C(=O)N1CCC[C@H]1C(=O)N1CCC[C@H]1C(=O)N[C@@H](CO)C(N)=O)[C@@H](C)CC)[C@@H](C)CC)C(=O)O [Example 422] | 0.0218 nM | 0.0729 nM | 0.194 nM | > 9950 nM | > 9950 nM | 97.5% | – | 0.00655 nM | – | – |
| CC[C@H](C)[C@H](NC(=O)[C@H](CC(C)C)NC(=O)[C@](C)(Cc1ccc(O)cc1)NC(=O)[C@H](CCCCNC(=O)COCCOCCNC(=O)COCCOCCNC(=O)CC[C@H](NC(=O)CCCCCCCCCCCCC(=O)O)C(=O)O)NC(=O)[C@@H](NC(=O)[C@H](Cc1ccccc1)NC(=O)[C@H](CCCN)NC(=O)C(C)(C)NC(=O)[C@H](CCC(N)=O)NC(=O)[C@H](C)NC(=O)[C@H](CCC(N)=O)NC(=O)[C@H](CCCN)NC(=O)[C@H](CC(=O)O)NC(=O)[C@H](CC(C)C)NC(=O)[C@](C)(CC(C)C)NC(=O)[C@@H](NC(=O)[C@H](CO)NC(=O)[C@H](CCc1ccc(O)cc1)NC(=O)[C@H](CC(=O)O)NC(=O)[C@H](CO)NC(=O)[C@@H](NC(=O)[C@](C)(Cc1ccccc1F)NC(=O)[C@@H](NC(=O)CNC(=O)[C@H](CCC(=O)O)NC(=O)C(C)(C)NC(=O)[C@@H](N)Cc1ccc(O)cc1)[C@@H](C)O)[C@@H](C)O)[C@@H](C)CC)[C@@H](C)CC)C(=O)N[C@@H](CCCCNC(=O)COCCOCCNC(=O)COCCOCCNC(=O)CC[C@H](NC(=O)CCCCCCCCCCCCC(=O)O)C(=O)O)C(=O)NCC(=O)NCC(=O)N1CCC[C@H]1C(=O)N[C@@H](CO)C(=O)N[C@@H](CO)C(=O)NCC(=O)N[C@@H](C)C(=O)N1CCC[C@H]1C(=O)N1CCC[C@H]1C(=O)N1CCC[C@H]1C(=O)N[C@@H](CO)C(N)=O [Example 491] | 0.0301 nM | 0.148 nM | 0.182 nM | > 9950 nM | > 9950 nM | 87.5% | 100% | 0.0148 nM | 105% | 119% |
| CC[C@H](C)[C@H](NC(=O)[C@H](CC(C)C)NC(=O)[C@](C)(Cc1ccc(O)cc1)NC(=O)[C@H](CCCCNC(=O)CC[C@H](NC(=O)COCCOCCNC(=O)COCCOCCNC(=O)CC[C@H](NC(=O)CCCCCCCCCCCCC(=O)O)C(=O)O)C(=O)O)NC(=O)[C@@H](NC(=O)[C@H](Cc1ccccc1)NC(=O)[C@H](CCCN)NC(=O)C(C)(C)NC(=O)[C@H](CCC(N)=O)NC(=O)[C@H](C)NC(=O)[C@H](CCC(N)=O)NC(=O)[C@H](CCCN)NC(=O)[C@H](CC(=O)O)NC(=O)[C@H](CC(C)C)NC(=O)[C@](C)(CC(C)C)NC(=O)[C@@H](NC(=O)C(C)(C)NC(=O)[C@H](Cc1ccncc1)NC(=O)[C@H](CC(=O)O)NC(=O)[C@H](CO)NC(=O)[C@@H](NC(=O)[C@](C)(Cc1ccccc1F)NC(=O)[C@@H](NC(=O)CNC(=O)[C@H](CCC(=O)O)NC(=O)C(C)(C)NC(=O)[C@@H](N)Cc1ccc(O)cc1)[C@@H](C)O)[C@@H](C)O)[C@@H](C)CC)[C@@H](C)CC)C(=O)N[C@@H](CCCCNC(=O)CC[C@H](NC(=O)COCCOCCNC(=O)COCCOCCNC(=O)CC[C@H](NC(=O)CCCCCCCCCCCCC(=O)O)C(=O)O)C(=O)O)C(=O)NCC(=O)NCC(=O)N1CCC[C@H]1C(=O)N[C@@H](CO)C(=O)N[C@@H](CO)C(=O)NCC(=O)N[C@@H](C)C(=O)N1CCC[C@H]1C(=O)N1CCC[C@H]1C(=O)N1CCC[C@H]1C(=O)N[C@@H](CO)C(N)=O [Example 482] | 0.0277 nM | 0.169 nM | 0.254 nM | > 9950 nM | > 9950 nM | – | – | 0.0158 nM | 110% | 118% |
